Experimental data from patent publication US20260232636A1, “INHIBITORS OF LRRK2” (Vanderbilt University, priority 2023, published 2026).

Columns and labels:
LRRK2 WT [1] = target: T1, LRRK2 WT (Homo sapiens, UniProt Q5S007); test: Cellular phospho-LRRK2 S935 HTRF assay, WT-HEK293 cells; assay type: cell-based; details: pS935 LRRK2 Cellular Activity Assay; HEK293 cells stably expressing human LRRK2 WT, 2 hr incubation
Description: This method utilizes two antibodies, europium-Cryptate (donor) antibody and d2-Cryptate (acceptor) antibody, specifically binding to total and phospho S935 of LRRK2, respectively. When two fluorophores are in close proximity, i.e. activation of kinase, time-resolved fluorescence energy transfer (TR-FRET) occurs where a light source excites europium donor, the 615 nm emission by europium then excites d2 acceptor. […] All cell culture reagents were purchased from Life Technologies, and phospho-LRRK2 S935 assay reagents were from Perkin Elmer (#6FLRKPEH). Briefly, the day before the assay, the cells (5,000 cells/20 μL/well) are prepared in the plating medium (growth medium without G418). […] The activities of inhibitors at WT and GS mutant are measured in separate cell plates.
For full enzyme control and maximum enzyme inhibition wells, 600 nL of DMSO and 0.2 mM MLi-2 were transferred, respectively. The final 2× compound plate is prepared by adding 60 μL of plating medium to each well. […] Compounds are incubated for 2 hrs in 37° C. humidified incubators.
During compound incubation, 4× lysis buffer and 100× blocking buffer are diluted to 1× with H2O. After 2 hr incubation, treatment medium is removed using an ELx405 Microplate washer (Agilent), and 16 μL of lysis/blocking buffer is immediately added to each well in entire plates. The plates are sealed with a plate seal, and placed on a plate shaker for 30 min at room temperature with shaking at 200 rpm.
During the lysis step, 1× antibody working solutions are prepared by diluting 40× Eu-Cryptate antibody and d2-antibody in detection buffer. After the cell plates are spun at 100×g for 1 min, 4 μL of antibody solutions is added to each well in entire plates. The plates are sealed with a plate seal, and placed on a plate shaker for 4 hrs at room temperature with shaking at 200 rpm.

LRRK2 WT [2] = target: T1, LRRK2 WT; test: Biochemical LRRK2 LanthaScreen TR-FRET kinase assay, wild type

T1 sequence (Q5S007 whole entry): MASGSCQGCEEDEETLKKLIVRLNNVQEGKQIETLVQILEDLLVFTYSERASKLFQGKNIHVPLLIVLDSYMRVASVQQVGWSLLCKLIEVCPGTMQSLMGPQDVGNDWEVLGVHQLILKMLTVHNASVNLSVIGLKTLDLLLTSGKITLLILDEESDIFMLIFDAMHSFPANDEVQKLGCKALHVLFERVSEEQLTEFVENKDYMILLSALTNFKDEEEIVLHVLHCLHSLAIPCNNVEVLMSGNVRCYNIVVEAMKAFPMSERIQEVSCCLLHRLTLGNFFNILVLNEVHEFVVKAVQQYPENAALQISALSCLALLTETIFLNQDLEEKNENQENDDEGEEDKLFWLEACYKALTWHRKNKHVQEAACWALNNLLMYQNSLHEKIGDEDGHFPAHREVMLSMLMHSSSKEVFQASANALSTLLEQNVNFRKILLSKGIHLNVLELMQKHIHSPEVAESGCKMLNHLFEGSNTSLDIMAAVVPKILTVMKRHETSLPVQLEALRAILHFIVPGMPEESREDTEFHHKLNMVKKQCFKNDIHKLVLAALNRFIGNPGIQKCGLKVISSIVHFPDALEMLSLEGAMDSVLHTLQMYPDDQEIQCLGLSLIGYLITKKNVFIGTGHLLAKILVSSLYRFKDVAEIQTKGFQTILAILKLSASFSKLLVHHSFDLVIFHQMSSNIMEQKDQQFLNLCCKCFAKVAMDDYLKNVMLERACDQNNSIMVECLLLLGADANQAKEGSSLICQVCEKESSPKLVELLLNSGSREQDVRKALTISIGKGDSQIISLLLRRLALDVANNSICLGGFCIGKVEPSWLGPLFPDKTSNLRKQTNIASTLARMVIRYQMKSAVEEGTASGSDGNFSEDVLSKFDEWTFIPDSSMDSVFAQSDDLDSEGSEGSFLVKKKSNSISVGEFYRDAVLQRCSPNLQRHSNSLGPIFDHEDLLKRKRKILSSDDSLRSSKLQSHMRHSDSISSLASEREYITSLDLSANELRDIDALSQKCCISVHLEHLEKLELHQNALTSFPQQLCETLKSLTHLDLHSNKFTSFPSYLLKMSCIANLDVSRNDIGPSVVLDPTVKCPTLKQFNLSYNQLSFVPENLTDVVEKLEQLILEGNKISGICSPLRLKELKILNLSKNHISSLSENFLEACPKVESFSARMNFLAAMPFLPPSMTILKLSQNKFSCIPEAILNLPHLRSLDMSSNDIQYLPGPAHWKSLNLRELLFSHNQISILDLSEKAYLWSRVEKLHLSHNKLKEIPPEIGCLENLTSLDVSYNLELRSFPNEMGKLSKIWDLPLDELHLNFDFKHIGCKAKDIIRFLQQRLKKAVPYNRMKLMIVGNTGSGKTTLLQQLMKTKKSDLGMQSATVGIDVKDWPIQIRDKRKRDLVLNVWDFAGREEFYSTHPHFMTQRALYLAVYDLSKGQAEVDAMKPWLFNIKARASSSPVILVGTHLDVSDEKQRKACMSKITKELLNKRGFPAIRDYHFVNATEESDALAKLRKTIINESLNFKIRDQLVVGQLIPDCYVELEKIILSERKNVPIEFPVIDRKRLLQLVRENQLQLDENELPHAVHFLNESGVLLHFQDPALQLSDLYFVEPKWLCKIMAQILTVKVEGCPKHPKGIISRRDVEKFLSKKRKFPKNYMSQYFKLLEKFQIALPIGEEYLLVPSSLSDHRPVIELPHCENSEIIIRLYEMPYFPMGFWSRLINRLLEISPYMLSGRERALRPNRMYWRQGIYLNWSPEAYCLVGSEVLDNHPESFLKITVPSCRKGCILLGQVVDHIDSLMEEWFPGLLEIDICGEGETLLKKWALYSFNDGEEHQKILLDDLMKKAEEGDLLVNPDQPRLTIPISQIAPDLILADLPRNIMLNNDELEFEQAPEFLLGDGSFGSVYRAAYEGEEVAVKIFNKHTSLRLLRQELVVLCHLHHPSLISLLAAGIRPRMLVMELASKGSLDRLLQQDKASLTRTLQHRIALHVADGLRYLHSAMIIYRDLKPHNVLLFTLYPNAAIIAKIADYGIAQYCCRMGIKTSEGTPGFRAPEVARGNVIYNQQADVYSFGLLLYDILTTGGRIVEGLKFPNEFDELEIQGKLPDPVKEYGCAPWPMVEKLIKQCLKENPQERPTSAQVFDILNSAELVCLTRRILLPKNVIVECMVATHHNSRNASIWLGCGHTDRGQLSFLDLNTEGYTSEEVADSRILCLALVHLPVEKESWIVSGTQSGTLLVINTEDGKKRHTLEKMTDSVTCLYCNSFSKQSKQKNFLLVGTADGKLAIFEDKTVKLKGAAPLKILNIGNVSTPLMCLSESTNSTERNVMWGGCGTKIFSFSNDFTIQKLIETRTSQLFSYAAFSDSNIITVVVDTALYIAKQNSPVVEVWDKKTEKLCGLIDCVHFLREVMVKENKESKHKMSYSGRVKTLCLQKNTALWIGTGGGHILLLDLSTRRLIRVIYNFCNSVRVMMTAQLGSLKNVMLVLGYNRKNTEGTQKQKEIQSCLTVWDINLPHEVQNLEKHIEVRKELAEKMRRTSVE

LRRK2 WT IC50 (LRRK2 WT [1]) | IC50 (LRRK2 WT [2]) [nM] | IC50 (LRRK2 WT [1]) [µM] | Compound
inactive | 642 | – | Cc1cc2cnn(-c3cnn(C)c3)c2cc1[C@@H]1C[C@@H]2CN(C3CCCOC3)C[C@@H]2C1 (mixture of isomers) [Compound 12, (rac)-5-methyl-1-(1-methyl-1H-pyrazol-4-yl)-6-((3aR,5r,6aS)-2-(tetrahydro-2H-pyran-3-yl)octahydrocyclopenta[c]pyrrol-5-yl)-1H-indazole]
inactive | 1530 | – | COC(=O)N1CCCC(N2C[C@H]3C[C@H](c4cc5c(cnn5-c5cnn(C)c5)cc4C)C[C@H]3C2)C1 (mixture of isomers) [Compound 18, (rac)-methyl 3-((3aR,5s,6aS)-5-(5-methyl-1-(1-methyl-1H-pyrazol-4-yl)-1H-indazol-6-yl)hexahydrocyclopenta[c]pyrrol-2(1H)-yl)piperidine-1-carboxylate]
inactive | 2290 | – | Cc1cc2cnn(-c3cnn(C)c3)c2cc1C1=C[C@@H]2CN(C(=O)OC(C)(C)C)C[C@@H]2C1 (racemic) [Compound 2, (rac)-tert-butyl (3aR,6aS)-5-(5-methyl-1-(1-methyl-1H-pyrazol-4-yl)-1H-indazol-6-yl)-3,3a,4,6a-tetrahydrocyclopenta[c] pyrrole-2(1H)-carboxylate]
inactive | 1220 | – | COC(=O)N1CCCC(N2C[C@H]3C[C@@H](c4cc5c(cnn5-c5cnn(C)c5)cc4C)C[C@H]3C2)C1 (mixture of isomers) [Compound 19, (rac)-methyl 3-((3aR,5r,6aS)-5-(5-methyl-1-(1-methyl-1H-pyrazol-4-yl)-1H-indazol-6-yl)hexahydrocyclopenta[c]pyrrol-2(1H)-yl)piperidine-1-carboxylate]
– | 716 | > 10 | Cc1cc2cnn(-c3cnn(C)c3)c2cc1C1=C[C@@H]2CN(C3CCOCC3)C[C@@H]2C1 (racemic) [Compound 3, (rac)-5-methyl-1-(1-methyl-1H-pyrazol-4-yl)-6-((3aR,6aS)-2-(tetrahydro-2H-pyran-4-yl)-1,2,3,3a,4,6a-hexahydrocyclopenta[c]pyrrol-5-yl)-1H-indazole]
– | 156 | 8.43 | Cc1cc2cnn(-c3cnn(C)c3)c2cc1[C@H]1C[C@@H]2CN(C(=O)c3snnc3C)C[C@@H]2C1 [Compound 9, (4-methyl-1,2,3-thiadiazol-5-yl)((3aR,5s,6aS)-5-(5-methyl-1-(1-methyl-1H-pyrazol-4-yl)-1H-indazol-6-yl)hexahydrocyclopenta[c]pyrrol-2(1H)-yl)methanone]
– | 113 | 7.58 | Cc1cc2cnn(-c3cnn(C)c3)c2cc1C1=C[C@@H]2CNC[C@@H]2C1 (racemic) [Compound 1, (rac)-6-((3aR,6aS)-1,2,3,3a,4,6a-hexahydrocyclopenta[c]pyrrol-5-yl)-5-methyl-1-(1-methyl-1H-pyrazol-4-yl)-1H-indazole]
inactive | 643 | – | Cc1cc2cnn(-c3cnn(C)c3)c2cc1[C@@H]1C[C@@H]2CN(C(=O)c3snnc3C)C[C@@H]2C1 [Compound 10, (4-methyl-1,2,3-thiadiazol-5-yl)((3aR,5r,6aS)-5-(5-methyl-1-(1-methyl-1H-pyrazol-4-yl)-1H-indazol-6-yl)hexahydrocyclopenta[c]pyrrol-2(1H)-yl)methanone]
– | 247 | 4.34 | Cc1cc2cnn(-c3cnn(C)c3)c2cc1[C@H]1C[C@@H]2CN(C3CCCOC3)C[C@@H]2C1 (mixture of isomers) [Compound 11, (rac)-5-methyl-1-(1-methyl-1H-pyrazol-4-yl)-6-((3aR,5s,6aS)-2-(tetrahydro-2H-pyran-3-yl)octahydrocyclopenta[c]pyrrol-5-yl)-1H-indazole]
